Columns and labels:
[1] = tested on: LDL receptor protein; assay: Measurement of an expression of a LDL receptor (immunoblotting, HepG2); format: cell-based, human; conditions: HepG2 cell, test compound at 0.1 and 1 μM, compared to a control group
Description: The activity of potentiating an expression of a LDL receptor by the test compounds were measured using a human hepatic cell line HepG2. Cells were seeded in a 6 well plate at the density of 7.5×10^5 cells/well (at first day). On third days, the medium was changed to a medium containing lipoprotein-deficient serum and the test compound. On forth days, the cells were scraped and collected by a centrifugation. The recovered cells were dissolved in a cell lysate buffer containing 0.1% TritonX-100 and after centrifugation, the supernatant was used as a solution of cell protein. The amount of the LDL-R protein was evaluated by an immunoblotting method using the above-prepared solution of cell protein.
After treating the HepG2 cell with the compound of Example 1-2, the amount of LDL receptor protein was detected by an immunoblotting method.

[2] = tested on: LDL receptor; assay: Effects on an activity of a LDL receptor: uptake amount of DiI-LDL into HepG2 cell; format: cell-based, human; conditions: control group as 100%
Description: The 1,1′-dioctadecyl-3,3,3′,3′-tetramethylindocarbocyanine perchlorate (DiI)-labeled LDL (DiI-LDL) was prepared as follows. That is, a DiI (Invitrogen Corp., U.S.A) was mixed with a human LDL (Chemicon International, Inc., U.S.A) and the mixture was incubated at 37° C. for 8 hours. […] After centrifugation, the DiI-labeled LDL fraction was separated and dialyzed with a physiological saline to prepare the above desired solution.
The effects on a LDL receptor activity were determined as the uptake amount of DiI-LDL into HepG2 cell. The cultured human hepatic cell line HepG2 cell was purchased from the Dainippon Pharmaceuticals Co. Ltd. (Osaka, Japan). The HepG2 cells were seeded in a 96 well plate and were incubated in the Dulbecco's modified Eagle/F-12 (DMEM/F-12) medium containing 10% fetal bovine serum and antibiotics in a CO2 incubator at 37° C. for two to three days. After washing the cells, a DMEM/F-12 medium containing 5-10% lipoprotein-deficient serum, the test substrate and the antibiotics were added thereto and the cells were incubated at 37° C. for 19 hours. After adding DiI-LDL, the cells were incubated in a CO2 incubator at 37° C. for another 5 hours. The uptake amount of non-specific DiI-LDL was measured by adding 30 to 50 folds amount of the non-labeled LDL. After washing the cells with Dulbecco's phosphate buffer (Sigma Corp., U.S.A.), the Dulbecco's phosphate buffer was added to each well and then the uptake amount of DiI-LDL into the cell line were measured as the value of fluorescence. After measuring the fluorescence, the Dulbecco's phosphate buffer was removed and thereto was added 1N sodium hydroxide solution to dissolve the cells and the amount of protein was measured by using a part of the resulting solution. The effect on a LDL receptor activity by each compound was determined by calculating the ratio of the amount of fluorescence/the amount of protein, and by subtracting the non-specific uptake amount therefrom and then calculating the control group as 100%.

Structure (SMILES)	amount of a LDL receptor protein [1]	Activity of (%) LDL receptor ([2]; 10 μM)	Activity of (%) LDL receptor ([2]; 1 μM)
COc1cccc(C2(C(=O)NS(=O)(=O)Oc3c(C(C)C)cccc3C(C)C)CCN(c3ccccc3OC)CC2)c1 [Example 1-2, 2,6-diisopropylphenyl {[1-(2-methoxyphenyl)-4-(3-methoxyphenyl)piperidin-4-yl]carbonyl}sulfamate]	superior increasing effect	124%	–
CNS(=O)(=O)NC[C@]1(c2cccc(OC)c2)CC[C@H](NCc2ccc(-c3ccccc3)cc2)CC1.Cl [Example 49, N-{[cis-4-[(biphenyl-4-ylmethyl)amino]-1-(3-methoxyphenyl)cyclohexyl]methyl}-N′-methylsulfamide hydrochloride]	–	–	208%
COc1cccc(C2(CNS(=O)(=O)c3ccc(C)cc3)CCN(C(c3ccccc3)c3ccccc3)CC2)c1 [Example 36, N-{[1-(diphenylmethyl)-4-(3-methoxyphenyl)piperidin-4-yl]methyl}-4-methylbenzenesulfonamide]	–	122%	–
